Results taken from doi:10.1101/2024.08.19.608619, “Discovery of potent SARS-CoV-2 nsp3 macrodomain inhibitors uncovers lack of translation to cellular antiviral response” (bioRxiv, 2024).
Read-outs that look alike come from different tables or passages of the source.

Columns and labels:
SARS-CoV-2 nsp3-mac1 [1] = target: T1, SARS-CoV-2 nsp3-mac1 (Severe acute respiratory syndrome coronavirus 2, UniProt P0DTD1); assay: biochemical; format: biochemical; details: SARS-CoV-2 nsp3 macrodomain TR-FRET single point, n=2
SARS-CoV-2 nsp3-mac1 [2] = target: T1, SARS-CoV-2 nsp3-mac1; assay: biochemical; design: SARS-CoV-2 nsp3 macrodomain TR-FRET single point, per cent inhibition, n=2
[3] = read-out: perc_inhibition_mean, batch_name=ASAP-0000320-001
[4] = read-out: perc_inhibition_mean, batch_name=ASAP-0000321-001
[5] = read-out: perc_inhibition_mean, batch_name=ASAP-0000322-001
[6] = read-out: perc_inhibition_mean, batch_name=ASAP-0000323-001
[7] = read-out: perc_inhibition_mean, batch_name=ASAP-0000324-001
[8] = read-out: perc_inhibition_mean, batch_name=ASAP-0000325-001
[9] = read-out: perc_inhibition_mean, batch_name=ASAP-0000326-001
[10] = read-out: perc_inhibition_mean, batch_name=ASAP-0000327-001
[11] = read-out: perc_inhibition_mean, batch_name=ASAP-0000328-001
[12] = read-out: perc_inhibition_mean, batch_name=ASAP-0000329-001
[13] = read-out: perc_inhibition_mean, batch_name=ASAP-0000330-001
[14] = read-out: perc_inhibition_mean, batch_name=ASAP-0000331-001
[15] = read-out: perc_inhibition_mean, batch_name=ASAP-0000332-001
[16] = read-out: perc_inhibition_mean, batch_name=ASAP-0000333-001
[17] = read-out: perc_inhibition_mean, batch_name=ASAP-0000334-001
[18] = read-out: perc_inhibition_mean, batch_name=ASAP-0000335-001
[19] = read-out: perc_inhibition_mean, batch_name=ASAP-0000336-001

Structure (SMILES)	perc_inhibition_mean (SARS-CoV-2 nsp3-mac1 [1]; concentration 49.75 uM)	perc_inhibition_mean (SARS-CoV-2 nsp3-mac1 [1]; concentration 99.5 uM)	also measured
CCn1cc(CNC(=O)c2ccc(NC(=O)Nc3ccccc3)cc2)cn1 [ASAP-0000320]	-1.76%	3.797%	inhibition at 49.75 µM (SARS-CoV-2 nsp3-mac1 [2]; [3]): -1.76%; inhibition at 99.5 µM (SARS-CoV-2 nsp3-mac1 [2]; [3]): 3.8%
Cn1c(C(=O)N(CCC(=O)N2CCNCC2)Cc2cccc(Cl)c2)cnc1O [ASAP-0000321]	-4.765%	-2.757%	inhibition at 49.75 µM (SARS-CoV-2 nsp3-mac1 [2]; [4]): -4.76%; inhibition at 99.5 µM (SARS-CoV-2 nsp3-mac1 [2]; [4]): -2.76%
CC(C)n1nccc1NC(=O)c1ccc(NC(=O)Nc2ccccc2)cc1 [ASAP-0000322]	-1.998%	-0.924%	inhibition at 49.75 µM (SARS-CoV-2 nsp3-mac1 [2]; [5]): -2%; inhibition at 99.5 µM (SARS-CoV-2 nsp3-mac1 [2]; [5]): -0.924%
O=C(CCN(Cc1cccc(Cl)c1)C(=O)[C@@H]1CNCC12CC2)N1CCNCC1 [ASAP-0000323]	4.205%	2.382%	inhibition at 49.75 µM (SARS-CoV-2 nsp3-mac1 [2]; [6]): 4.21%; inhibition at 99.5 µM (SARS-CoV-2 nsp3-mac1 [2]; [6]): 2.38%
CO[C@@H]1CCCN(C(=O)c2cnn3ccc(C4CCN(C(=O)c5ccccc5)CC4)cc23)C1 [ASAP-0000324]	22.606%	39.842%	inhibition at 49.75 µM (SARS-CoV-2 nsp3-mac1 [2]; [7]): 22.6%; inhibition at 99.5 µM (SARS-CoV-2 nsp3-mac1 [2]; [7]): 39.8%
N[C@@H]1CCC[C@@H](C(=O)N(CCC(=O)N2CCNCC2)Cc2cccc(Cl)c2)C1 [ASAP-0000325]	-0.755%	-1.468%	inhibition at 49.75 µM (SARS-CoV-2 nsp3-mac1 [2]; [8]): -0.755%; inhibition at 99.5 µM (SARS-CoV-2 nsp3-mac1 [2]; [8]): -1.47%
O=C(CCN(Cc1cccc(Cl)c1)C(=O)C1(O)CCCC1)N1CCNCC1 [ASAP-0000326]	-1.213%	-1.781%	inhibition at 49.75 µM (SARS-CoV-2 nsp3-mac1 [2]; [9]): -1.21%; inhibition at 99.5 µM (SARS-CoV-2 nsp3-mac1 [2]; [9]): -1.78%
Cc1nccc(C(=O)N2CCC(c3ccn4ncc(C(=O)N5CCCCC5)c4c3)CC2)n1 [ASAP-0000327]	16.537%	27.369%	inhibition at 49.75 µM (SARS-CoV-2 nsp3-mac1 [2]; [10]): 16.5%; inhibition at 99.5 µM (SARS-CoV-2 nsp3-mac1 [2]; [10]): 27.4%
O=C(c1cn2ncccc2n1)N1CCC(c2ccn3ncc(C(=O)N4CCCCC4)c3c2)CC1 [ASAP-0000328]	30.741%	53.75%	inhibition at 49.75 µM (SARS-CoV-2 nsp3-mac1 [2]; [11]): 30.7%; inhibition at 99.5 µM (SARS-CoV-2 nsp3-mac1 [2]; [11]): 53.8%
O=C(c1cc(O)ccn1)N1CCC(c2ccn3ncc(C(=O)N4CCCCC4)c3c2)CC1 [ASAP-0000329]	17.623%	32.165%	inhibition at 49.75 µM (SARS-CoV-2 nsp3-mac1 [2]; [12]): 17.6%; inhibition at 99.5 µM (SARS-CoV-2 nsp3-mac1 [2]; [12]): 32.2%
Cc1n[nH]c(C)c1C(=O)N1CCC(c2ccn3ncc(C(=O)N4CCCCC4)c3c2)CC1 [ASAP-0000330]	10.806%	23.296%	inhibition at 49.75 µM (SARS-CoV-2 nsp3-mac1 [2]; [13]): 10.8%; inhibition at 99.5 µM (SARS-CoV-2 nsp3-mac1 [2]; [13]): 23.3%
Cn1cnc(C(=O)N(CCC(=O)N2CCNCC2)Cc2cccc(Cl)c2)n1 [ASAP-0000331]	-1.441%	-0.25%	inhibition at 49.75 µM (SARS-CoV-2 nsp3-mac1 [2]; [14]): -1.44%; inhibition at 99.5 µM (SARS-CoV-2 nsp3-mac1 [2]; [14]): -0.25%
Cc1cocc1C(=O)N(CCC(=O)N1CCNCC1)Cc1cccc(Cl)c1 [ASAP-0000332]	1.398%	0.51%	inhibition at 49.75 µM (SARS-CoV-2 nsp3-mac1 [2]; [15]): 1.4%; inhibition at 99.5 µM (SARS-CoV-2 nsp3-mac1 [2]; [15]): 0.51%
Cn1nncc1C(=O)N(CCC(=O)N1CCNCC1)Cc1cccc(Cl)c1 [ASAP-0000333]	0.447%	-2.15%	inhibition at 49.75 µM (SARS-CoV-2 nsp3-mac1 [2]; [16]): 0.447%; inhibition at 99.5 µM (SARS-CoV-2 nsp3-mac1 [2]; [16]): -2.15%
O=C(CCN(Cc1cccc(Cl)c1)C(=O)c1cnon1)N1CCNCC1 [ASAP-0000334]	-2.442%	-1.082%	inhibition at 49.75 µM (SARS-CoV-2 nsp3-mac1 [2]; [17]): -2.44%; inhibition at 99.5 µM (SARS-CoV-2 nsp3-mac1 [2]; [17]): -1.08%
O=C(CCN(Cc1cccc(Cl)c1)C(=O)c1ccc(F)cn1)N1CCNCC1 [ASAP-0000335]	6.758%	6.737%	inhibition at 49.75 µM (SARS-CoV-2 nsp3-mac1 [2]; [18]): 6.76%; inhibition at 99.5 µM (SARS-CoV-2 nsp3-mac1 [2]; [18]): 6.74%
Nc1c(O)cccc1C(=O)N(CCC(=O)N1CCNCC1)Cc1cccc(Cl)c1 [ASAP-0000336]	-1.238%	1.457%	inhibition at 49.75 µM (SARS-CoV-2 nsp3-mac1 [2]; [19]): -1.24%; inhibition at 99.5 µM (SARS-CoV-2 nsp3-mac1 [2]; [19]): 1.46%
